Measurements reported in patent publication US20250163052A1, “cGAS INHIBITORS AND USES THEREOF” (Cornell University, priority 2022, published 2025).

Assays:
[1] = system: NFkB-SEAP; test: THP1-Dual cells transfected with DNA, nfkb expression (Quantiblue); format: cell-based; details: Homo sapiens; for inhibition at 10 µM: THP-1, 10 μM; for inhibition at 30 µM: THP-1, 30 μM
Procedure: Evaluation of active cGAS inhibitors in THP1 cells (Table 3). Cellular activity of all compounds (in Table 3) was determined using THP1-Dual™ cells as described (Lama et. al., 2019). THP1-Dual™ cells (Invivogen) (50000 cells in 100 μl media) were seeded into each well of a 96-well plate and treated with compounds at various dilution for 4 hours. Subsequently, cells were transfected with DNA (2 ug/ml) and lipofectamine and incubate the cells were incubated overnight. Ifnb expression was measured in cell supernatant using Quantiluc, nfkb expression was determined using Quantiblue, and cell viability using Promega® CellTiter-Glo®.

[2] = system: THP1 cells; test: THP1-Dual cells, cell viability (CellTiter-Glo); format: cell-based
In short: (§1)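 Readouts after overnight incubation: Quantiluc luminescence for Ifnb, Quantiblue for nfkb (both in supernatant) and CellTiter-Glo for viability. Before the DNA stimulus (2 ug/ml, lipofectamine transfection), THP1-Dual cells received compound at several dilutions for 4 h.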

[3] = system: IFNB; test: THP1-Dual cells transfected with DNA, Ifnb expression (Quantiluc); format: cell-based; details: Homo sapiens; for inhibition at 10 µM: THP-1, 10 μM; for inhibition at 30 µM: THP-1, 30 μM
In short: as §1

[4] = target: h-cGAS (Homo sapiens, UniProt Q8N884); test: Cell-free human cGAS enzyme inhibition assay (ATP depletion, Kinase-Glo Max); format: biochemical; details: 3 h; for inhibition at 1 µM: read-out: h-cGAS, conc. 1 μM; for inhibition at 10 µM: read-out: h-cGAS, conc. 10 μM
[5] = target: m-cGAS (Mus musculus, UniProt Q8C6L5); test: Cell-free mouse cGAS enzyme inhibition assay (ATP depletion, Kinase-Glo Max); format: biochemical; details: 1 h; for inhibition at 10 µM: read-out: m-cGAS, conc. 10 μM; for inhibition at 1 µM: read-out: m-cGAS, conc. 1 μM
Procedure: Cell-free mouse and human cGAS enzyme inhibition assay (Table 2). Activity of all compounds (in Table 1) against m-cGAS (30 nM) and or h-cGAS, (100 nM) was determined by measuring the conversion of ATP and GTP (100 μM each) to cGAMP in the presence of dsDNA (5 ug/mL) in a reaction buffer composed of Tris-HCl (20 mM, pH7.4), NaCl (150 mM), MnCl2 (0.2 mM, h-cGAS) or MgCl2 (5 mM, m-cGAS) and Tween-20 (0.01%), and the remaining ATP concentration using Kinase-Glo®Max Luminescent Kinase Assay (Promega, Madison, WI), as described (Lama, et. al., 2019). Briefly, 10 μl of a master mix of 0.4 mM ATP, 0.4 mM GTP, 0.02 mg/mL dsDNA in the reaction buffer supplemented with 2 mM DTT was added to reaction wells containing TDI-6570 or TDI-8246 (2× of the desired concentration) in the same buffer ([…]) using a Thermo 8-channel Multidrop Combi dispenser. Next, 10 μl of a 4×m-cGAS (0.120 μM) or h-cGAS (0.4 μM) solution in the reaction buffer supplemented with 2 mM DTT was added to appropriate wells. Similar sets of reactions without cGAS or the inhibitor was set by adding the buffer alone. The reactions with the plates sealed were incubated at 37° C. (1 hour for m-cGAS and 3 hours for h-cGAS) and stopped by addition of 40 μl of the Kinase-Glo®Max. The luminescence was recorded in relative light units (RLUs) using a Biotek Synergy H1 Hybrid plate reader (BioTek, Winooski, VT). […] All reactions were run in triplicates and calculated using GraphPad Prism 9. The values represent mean IC50±S.D.

Chain of m-cGAS (Q8C6L5 whole entry): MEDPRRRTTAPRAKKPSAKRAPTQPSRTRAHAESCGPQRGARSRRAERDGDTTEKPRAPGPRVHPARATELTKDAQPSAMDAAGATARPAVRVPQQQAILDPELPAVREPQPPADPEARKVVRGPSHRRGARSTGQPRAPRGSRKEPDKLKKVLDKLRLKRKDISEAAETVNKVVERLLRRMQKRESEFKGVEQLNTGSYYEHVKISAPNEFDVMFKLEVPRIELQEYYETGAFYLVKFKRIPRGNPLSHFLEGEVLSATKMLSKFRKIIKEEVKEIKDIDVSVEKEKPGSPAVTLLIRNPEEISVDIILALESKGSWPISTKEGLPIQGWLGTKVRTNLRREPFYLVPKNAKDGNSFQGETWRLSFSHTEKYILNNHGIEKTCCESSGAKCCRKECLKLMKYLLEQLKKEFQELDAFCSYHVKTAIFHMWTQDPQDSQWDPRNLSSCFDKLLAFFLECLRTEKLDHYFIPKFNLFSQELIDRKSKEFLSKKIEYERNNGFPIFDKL
Chain of h-cGAS (Q8N884 whole entry): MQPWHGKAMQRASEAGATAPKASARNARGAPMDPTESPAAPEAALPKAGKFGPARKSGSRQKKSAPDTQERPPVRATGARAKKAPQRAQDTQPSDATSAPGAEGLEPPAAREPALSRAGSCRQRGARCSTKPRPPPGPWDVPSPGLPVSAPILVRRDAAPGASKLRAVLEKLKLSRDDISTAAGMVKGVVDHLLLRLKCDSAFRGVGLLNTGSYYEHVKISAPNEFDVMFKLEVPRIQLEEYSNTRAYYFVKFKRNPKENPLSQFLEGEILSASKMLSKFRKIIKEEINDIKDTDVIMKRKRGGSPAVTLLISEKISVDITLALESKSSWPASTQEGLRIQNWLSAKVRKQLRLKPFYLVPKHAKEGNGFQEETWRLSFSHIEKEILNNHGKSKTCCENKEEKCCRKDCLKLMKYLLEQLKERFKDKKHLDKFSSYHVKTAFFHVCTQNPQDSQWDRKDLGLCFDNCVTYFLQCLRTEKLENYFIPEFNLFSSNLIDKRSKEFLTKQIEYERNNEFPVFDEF

| inhibition at 1 µM [4] [%] | inhibition at 10 µM [4] [%] | inhibition at 10 µM [5] [%] | inhibition at 1 µM [5] [%] | SMILES | inhibition at 10 µM [1] [%] | inhibition at 30 µM [1] [%] | Cell viability 10 μM [2] | Cell viability 30 μM [2] | inhibition at 10 µM [3] [%] | inhibition at 30 µM [3] [%] |
| --- | --- | --- | --- | --- | --- | --- | --- | --- | --- | --- |
| 25 to 49 | 75 to 100 | 0 to 24 | – | CC(C)(N)C(=O)N1CCc2[nH]c3c(Cl)c(Cl)cc(-c4cc[nH]n4)c3c2C1 [Compound 20] | 75 to 100 | 75 to 100 | +++ (+, ++, and +++ mean the compound respectively shows 25-49%; 50-74%; or 75-100% viability to cells) | +++ (+, ++, and +++ mean the compound respectively shows 25-49%; 50-74%; or 75-100% viability to cells) | 50 to 74 | 75 to 100 |
| – | 25 to 49 | 75 to 100 | – | O=C(CO)N1CCc2oc3c(Cl)c(Cl)ccc3c2C1 [Compound 21] | – | < 24 | – | +++ (+, ++, and +++ mean the compound respectively shows 25-49%; 50-74%; or 75-100% viability to cells) | – | < 24 |
| 25 to 49 | 50 to 74 | 50 to 74 | 0 to 24 | O=C(CO)N1CCc2oc3c(Cl)c(Cl)cc(-c4cncnc4)c3c2C1 [Compound 25] | < 24 | – | +++ (+, ++, and +++ mean the compound respectively shows 25-49%; 50-74%; or 75-100% viability to cells) | – | – | < 24 |
| 25 to 49 | 50 to 74 | 75 to 100 | 50 to 74 | NCC(=O)N1CCc2oc3c(Cl)c(Cl)cc(-c4cncnc4)c3c2C1 [Compound 32] | < 24 | < 24 | +++ (+, ++, and +++ mean the compound respectively shows 25-49%; 50-74%; or 75-100% viability to cells) | +++ (+, ++, and +++ mean the compound respectively shows 25-49%; 50-74%; or 75-100% viability to cells) | < 24 | < 24 |
| 0 to 24 | 50 to 74 | 75 to 100 | 0 to 24 | NCC(=O)N1CCc2sc3c(Cl)c(Cl)cc(-c4cncnc4)c3c2C1 [Compound 53] | 25 to 49 | 50 to 74 | +++ (+, ++, and +++ mean the compound respectively shows 25-49%; 50-74%; or 75-100% viability to cells) | − (Cell viability <24%, in THP1 cells is expressed as “−”) | < 24 | 75 to 100 |
| – | 25 to 49 | 75 to 100 | 25 to 49 | Cn1cc(-c2cc(Cl)c(Cl)c3sc4c(c23)CCN(C(=O)CO)C4)cn1 [Compound 62] | < 24 | – | +++ (+, ++, and +++ mean the compound respectively shows 25-49%; 50-74%; or 75-100% viability to cells) | – | 50 to 74 | – |
| 0 to 24 | 50 to 74 | 50 to 74 | 0 to 24 | NCC(=O)N1CCc2c(sc3c(Cl)c(Cl)cc(-c4cncnc4)c23)C1 [Compound 73] | < 24 | 75 to 100 | +++ (+, ++, and +++ mean the compound respectively shows 25-49%; 50-74%; or 75-100% viability to cells) | − (Cell viability <24%, in THP1 cells is expressed as “−”) | < 24 | 75 to 100 |
| 0 to 24 | 50 to 74 | 75 to 100 | – | NCC(=O)N1CCc2c(sc3c(Cl)c(Cl)cc(-c4ccc(N)nc4)c23)C1 [Compound 75] | < 24 | 75 to 100 | +++ (+, ++, and +++ mean the compound respectively shows 25-49%; 50-74%; or 75-100% viability to cells) | +++ (+, ++, and +++ mean the compound respectively shows 25-49%; 50-74%; or 75-100% viability to cells) | 75 to 100 | 75 to 100 |
| 0 to 24 | 50 to 74 | 75 to 100 | – | CNc1ccc(-c2cc(Cl)c(Cl)c3sc4c(c23)CCN(C(=O)CN)C4)cn1 [Compound 76] | < 24 | 75 to 100 | +++ (+, ++, and +++ mean the compound respectively shows 25-49%; 50-74%; or 75-100% viability to cells) | +++ (+, ++, and +++ mean the compound respectively shows 25-49%; 50-74%; or 75-100% viability to cells) | 75 to 100 | 75 to 100 |
| 25 to 49 | 50 to 74 | 75 to 100 | 25 to 49 | NCC(=O)N1CCc2c(sc3c(Cl)c(Cl)cc(-c4cc[nH]n4)c23)C1 [Compound 77] | 50 to 74 | 75 to 100 | +++ (+, ++, and +++ mean the compound respectively shows 25-49%; 50-74%; or 75-100% viability to cells) | − (Cell viability <24%, in THP1 cells is expressed as “−”) | 25 to 49 | 75 to 100 |
| 0 to 24 | 50 to 74 | 75 to 100 | 25 to 49 | NCC(=O)N1CCc2c(sc3c(Cl)c(Cl)cc(-c4cccnc4)c23)C1 [Compound 78] | 50 to 74 | 75 to 100 | + (+, ++, and +++ mean the compound respectively shows 25-49%; 50-74%; or 75-100% viability to cells) | − (Cell viability <24%, in THP1 cells is expressed as “−”) | 75 to 100 | 75 to 100 |
| – | 25 to 49 | 75 to 100 | 25 to 49 | NCC(=O)N1CCc2c(sc3c(Cl)c(Cl)cc(-c4ccncc4)c23)C1 [Compound 79] | 50 to 74 | 75 to 100 | + (+, ++, and +++ mean the compound respectively shows 25-49%; 50-74%; or 75-100% viability to cells) | − (Cell viability <24%, in THP1 cells is expressed as “−”) | 75 to 100 | 75 to 100 |
| 25 to 49 | 75 to 100 | 75 to 100 | 25 to 49 | NCC(=O)N1CCc2c(sc3c(Cl)c(Cl)cc(-c4ccco4)c23)C1 [Compound 80] | 50 to 74 | 75 to 100 | +++ (+, ++, and +++ mean the compound respectively shows 25-49%; 50-74%; or 75-100% viability to cells) | − (Cell viability <24%, in THP1 cells is expressed as “−”) | 50 to 74 | 75 to 100 |
| 0 to 24 | 50 to 74 | 50 to 74 | 0 to 24 | NCC(=O)N1CCc2c(sc3c(Cl)c(Cl)cc(-c4cccs4)c23)C1 [Compound 81] | 75 to 100 | 75 to 100 | +++ (+, ++, and +++ mean the compound respectively shows 25-49%; 50-74%; or 75-100% viability to cells) | − (Cell viability <24%, in THP1 cells is expressed as “−”) | 50 to 74 | 75 to 100 |
